# Test results from patent US12371428B2 (Exelixis, Inc., priority 2019, dated 2025).
# Assays:
# Format in all cases: cell-based
# [1] = target: AXL (phospho-AXL, Gas6-stimulated A-172 glioblastoma cells) (Homo sapiens (Human), UniProt P30530); assay: AXL autophosphorylation ELISA in A-172 cells (Example E); details: cellular activity; AXL autophosphorylation ELISA in A-172 cells; read-out: Axl IC50
# In short: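 Phospho-AXL in lysates was quantified by ELISA, normalised to DMSO (100%) and reference inhibitor (0%) controls. IC50 by 4-parameter logistic fit.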
# [2] = target: KDR (phospho-KDR, VEGF165-stimulated HUVEC cells) (Homo sapiens (Human), UniProt P35968); assay: KDR autophosphorylation ELISA in HUVEC cells (Example G); details: cellular activity; KDR autophosphorylation ELISA in HUVEC cells
# Chain of KDR (phospho-KDR, VEGF165-stimulated HUVEC cells) (P35968 20-1356): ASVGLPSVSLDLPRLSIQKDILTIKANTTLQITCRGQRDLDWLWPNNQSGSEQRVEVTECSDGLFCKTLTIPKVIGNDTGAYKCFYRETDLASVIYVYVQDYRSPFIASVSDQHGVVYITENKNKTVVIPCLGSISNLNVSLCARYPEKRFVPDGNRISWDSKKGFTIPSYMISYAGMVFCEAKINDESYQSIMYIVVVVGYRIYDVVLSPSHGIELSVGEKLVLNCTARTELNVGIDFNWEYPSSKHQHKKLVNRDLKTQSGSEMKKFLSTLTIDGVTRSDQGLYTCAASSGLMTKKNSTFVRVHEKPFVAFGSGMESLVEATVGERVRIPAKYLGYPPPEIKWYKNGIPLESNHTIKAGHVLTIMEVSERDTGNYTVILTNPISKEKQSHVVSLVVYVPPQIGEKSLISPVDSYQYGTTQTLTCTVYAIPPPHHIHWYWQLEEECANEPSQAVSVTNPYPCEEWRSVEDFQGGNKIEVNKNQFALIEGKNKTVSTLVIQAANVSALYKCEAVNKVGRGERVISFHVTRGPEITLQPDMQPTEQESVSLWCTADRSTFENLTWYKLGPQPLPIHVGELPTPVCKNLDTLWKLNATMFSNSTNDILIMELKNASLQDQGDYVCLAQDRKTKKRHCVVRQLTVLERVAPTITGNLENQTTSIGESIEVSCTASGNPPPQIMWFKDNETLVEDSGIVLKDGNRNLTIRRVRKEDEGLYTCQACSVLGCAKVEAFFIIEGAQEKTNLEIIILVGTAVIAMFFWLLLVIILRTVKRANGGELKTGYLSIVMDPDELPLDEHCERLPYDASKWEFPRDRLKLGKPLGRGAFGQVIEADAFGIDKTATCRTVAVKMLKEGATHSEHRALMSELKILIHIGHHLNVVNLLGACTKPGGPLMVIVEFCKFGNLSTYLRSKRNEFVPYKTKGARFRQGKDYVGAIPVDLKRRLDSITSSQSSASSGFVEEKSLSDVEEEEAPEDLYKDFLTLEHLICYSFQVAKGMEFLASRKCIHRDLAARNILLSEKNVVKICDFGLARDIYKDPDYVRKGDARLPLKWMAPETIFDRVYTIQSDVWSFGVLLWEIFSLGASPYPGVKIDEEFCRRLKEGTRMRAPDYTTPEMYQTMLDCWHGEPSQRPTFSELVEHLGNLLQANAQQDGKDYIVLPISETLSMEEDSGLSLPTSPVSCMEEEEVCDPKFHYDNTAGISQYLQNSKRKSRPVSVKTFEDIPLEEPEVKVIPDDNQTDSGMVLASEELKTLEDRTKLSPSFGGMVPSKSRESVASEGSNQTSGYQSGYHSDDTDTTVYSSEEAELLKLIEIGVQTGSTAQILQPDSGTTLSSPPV
# In short: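 IC50 values derive from nonlinear curve fitting of phospho-KDR levels measured by ELISA and interpolated from a phosphoprotein standard. Beforehand, starved HUVECs received compound (0.3% DMSO vehicle) for one hour and were activated with VEGF165 at 100 ng/mL for 5 min.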
# [3] = target: Met (phospho-Met, HGF-stimulated PC-3 prostate cancer cells) (Homo sapiens (Human), UniProt P08581); assay: Met autophosphorylation ELISA in PC-3 cells (Example F); details: cellular activity; Met autophosphorylation ELISA in PC-3 cells; read-out: c-Met IC50
# Chain of Met (phospho-Met, HGF-stimulated PC-3 prostate cancer cells) (P08581 25-1390): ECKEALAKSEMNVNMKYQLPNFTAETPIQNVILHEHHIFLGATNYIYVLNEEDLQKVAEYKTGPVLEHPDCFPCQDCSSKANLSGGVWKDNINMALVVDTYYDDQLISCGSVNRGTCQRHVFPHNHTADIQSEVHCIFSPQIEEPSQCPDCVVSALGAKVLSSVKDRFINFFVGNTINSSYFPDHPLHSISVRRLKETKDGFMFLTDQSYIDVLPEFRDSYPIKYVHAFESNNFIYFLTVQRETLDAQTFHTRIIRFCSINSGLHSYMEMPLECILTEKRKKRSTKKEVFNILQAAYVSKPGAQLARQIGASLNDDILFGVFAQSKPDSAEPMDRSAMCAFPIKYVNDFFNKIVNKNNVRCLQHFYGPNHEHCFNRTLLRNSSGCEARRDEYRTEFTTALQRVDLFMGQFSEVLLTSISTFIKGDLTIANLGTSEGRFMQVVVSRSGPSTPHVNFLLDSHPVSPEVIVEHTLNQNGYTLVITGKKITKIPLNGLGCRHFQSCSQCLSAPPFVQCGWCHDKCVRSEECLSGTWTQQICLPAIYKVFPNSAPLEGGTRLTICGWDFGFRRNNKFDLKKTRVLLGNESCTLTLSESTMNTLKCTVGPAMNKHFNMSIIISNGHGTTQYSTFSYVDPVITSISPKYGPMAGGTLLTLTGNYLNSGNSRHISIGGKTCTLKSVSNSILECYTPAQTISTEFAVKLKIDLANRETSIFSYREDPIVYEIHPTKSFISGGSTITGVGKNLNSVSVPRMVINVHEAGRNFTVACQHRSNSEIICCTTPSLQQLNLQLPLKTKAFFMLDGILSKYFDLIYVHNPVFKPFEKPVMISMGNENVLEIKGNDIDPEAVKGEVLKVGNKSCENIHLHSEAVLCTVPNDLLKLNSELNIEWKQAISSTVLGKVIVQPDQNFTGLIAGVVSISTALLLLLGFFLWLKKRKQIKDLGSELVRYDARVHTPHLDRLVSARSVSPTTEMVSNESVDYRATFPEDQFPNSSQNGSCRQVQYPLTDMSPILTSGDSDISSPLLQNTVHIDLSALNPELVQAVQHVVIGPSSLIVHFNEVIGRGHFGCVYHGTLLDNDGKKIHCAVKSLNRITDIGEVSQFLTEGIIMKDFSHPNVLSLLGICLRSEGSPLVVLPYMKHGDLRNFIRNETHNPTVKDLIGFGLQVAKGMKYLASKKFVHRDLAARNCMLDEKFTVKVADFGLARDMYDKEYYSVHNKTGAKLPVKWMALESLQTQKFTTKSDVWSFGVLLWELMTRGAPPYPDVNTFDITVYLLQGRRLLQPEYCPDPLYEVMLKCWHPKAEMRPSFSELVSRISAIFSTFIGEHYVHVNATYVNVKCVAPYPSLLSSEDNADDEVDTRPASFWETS
# In short: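 Sandwich ELISA for phospho-Met (panTyr) in PC-3 lysates. Cells starved 3 h serum-free, compound 1 h (8-pt curve, 0.3% DMSO), HGF 100 ng/mL 10 min. 100% = HGF + DMSO; 0% = HGF + reference inhibitor. IC50 by 4-parameter fit.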
# Chain of AXL (phospho-AXL, Gas6-stimulated A-172 glioblastoma cells) (P30530 26-894): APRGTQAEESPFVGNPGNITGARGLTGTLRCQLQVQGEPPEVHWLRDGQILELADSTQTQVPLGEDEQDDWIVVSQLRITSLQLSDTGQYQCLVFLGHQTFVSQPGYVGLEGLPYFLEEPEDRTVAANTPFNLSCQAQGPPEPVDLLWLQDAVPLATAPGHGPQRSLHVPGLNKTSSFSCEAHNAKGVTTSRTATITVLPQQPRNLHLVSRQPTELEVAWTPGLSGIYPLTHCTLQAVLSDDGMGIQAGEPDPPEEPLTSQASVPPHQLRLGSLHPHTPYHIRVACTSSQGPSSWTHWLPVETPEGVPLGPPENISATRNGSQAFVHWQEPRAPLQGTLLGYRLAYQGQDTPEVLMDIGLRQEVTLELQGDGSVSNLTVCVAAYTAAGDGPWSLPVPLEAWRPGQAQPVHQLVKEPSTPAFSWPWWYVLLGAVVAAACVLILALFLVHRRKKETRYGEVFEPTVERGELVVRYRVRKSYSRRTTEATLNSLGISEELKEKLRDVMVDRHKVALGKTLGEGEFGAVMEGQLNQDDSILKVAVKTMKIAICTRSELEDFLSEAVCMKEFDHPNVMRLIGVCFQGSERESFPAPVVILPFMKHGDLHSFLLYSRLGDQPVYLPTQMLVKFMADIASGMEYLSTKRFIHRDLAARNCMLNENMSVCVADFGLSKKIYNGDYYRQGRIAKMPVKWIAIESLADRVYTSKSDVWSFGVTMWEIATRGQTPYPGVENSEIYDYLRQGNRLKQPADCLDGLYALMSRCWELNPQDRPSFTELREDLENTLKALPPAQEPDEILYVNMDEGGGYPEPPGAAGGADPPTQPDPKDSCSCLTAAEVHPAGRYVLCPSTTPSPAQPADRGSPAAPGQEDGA
Structure (SMILES),IC50 [1],IC50 [2],IC50 [3]
"COc1cc2nccc(Oc3ncc(NC(=O)c4cn(C5CC5)cc(-c5ccc(F)cc5)c4=O)cc3F)c2cc1OC [Compound 399, 1-cyclopropyl-N-[6-(6,7-dimethoxyquinolin-4-yl)oxy-5-fluoropyridin-3-yl]-5-(4-fluorophenyl)-4-oxopyridine-3-carboxamide]",< 100 nM,> 300 nM,< 100 nM
"COc1cc2nccc(Oc3ccc(NC(=O)c4c(C)cc(C)n(-c5ccc(F)cc5C)c4=O)cc3F)c2nc1OC [Compound 298, N-[4-[(6,7-Dimethoxy-1,5-naphthyridin-4-yl)oxy]-3-fluorophenyl]-1-(4-fluoro-2-methylphenyl)-4,6-dimethyl-2-oxopyridine-3-carboxamide]",,< 100 nM,< 100 nM
"Cc1nc(C)c(-c2ccc(F)cc2)c(O)c1C(=O)Nc1ccc(Oc2ccnc3cc(OCc4ccccc4)cnc23)c(F)c1 [Compound 277, 5-(4-Fluorophenyl)-N-[3-fluoro-4-[(7-phenylmethoxy-1,5-naphthyridin-4-yl)oxy]phenyl]-4-hydroxy-2,6-dimethylpyridine-3-carboxamide]",,< 100 nM,< 100 nM
"CCn1cc(C(=O)Nc2ccc(Oc3ccnc4cc(OC)cnc34)c(F)c2)c(=O)c(-c2ccc(F)cc2)c1CO [Compound 273, 1-Ethyl-N-[3-fluoro-4-[(7-methoxy-1,5-naphthyridin-4-yl)oxy]phenyl]-5-(4-fluorophenyl)-6-(hydroxymethyl)-4-oxopyridine-3-carboxamide]",,> 300 nM,< 100 nM
"COc1ccc2nccc(Oc3ccc(NC(=O)c4nccn(-c5ccc(F)cc5)c4=O)cc3)c2n1 [Compound 383, 4-(4-fluorophenyl)-N-[4-[(6-methoxy-1,5-naphthyridin-4-yl)oxy]phenyl]-3-oxopyrazine-2-carboxamide]",,> 300 nM,< 100 nM
"COc1ccc2nccc(Oc3ccc(NC(=O)c4c(C)nc(C)c(-c5ccc(F)cc5)c4O)cc3F)c2c1 [Compound 345, N-[3-fluoro-4-(6-methoxyquinolin-4-yl)oxyphenyl]-5-(4-fluorophenyl)-4-hydroxy-2,6-dimethylpyridine-3-carboxamide]",,< 100 nM,< 100 nM
"COc1cc2nccc(Oc3ccc(NC(=O)c4cn(C)cc(-c5c(C)cc(F)cc5C)c4=O)cc3F)c2nc1OC [Compound 268, N-[4-[(6,7-Dimethoxy-1,5-naphthyridin-4-yl)oxy]-3-fluorophenyl]-5-(4-fluoro-2,6-dimethylphenyl)-1-methyl-4-oxopyridine-3-carboxamide]",,> 300 nM,< 100 nM
